In this experiment the target is ACC2 (Homo sapiens, UniProt O00763). Kind of experiment: In vitro ACC2 inhibition assay (ADP-Glo). Format: biochemical. Conditions: read-out: ACC2. Here is the method: An exemplary procedure for the in vitro ACC inhibition assay, which can be used to determine the inhibitory action of compounds of the invention toward either ACC1 or ACC2, follows. The ADP-Glo™ Kinase Assay kit from Promega was used. The ADP-Glo™ Kinase Assay is a luminescent ADP detection assay to measure enzymatic activity by quantifying the amount of ADP produced during an enzyme reaction. The assay is performed in two steps; first, after the enzyme reaction, an equal volume of ADP-Glo™ Reagent is added to terminate the reaction and deplete the remaining ATP. Second, the Kinase Detection Reagent is added to simultaneously convert ADP to ATP and allow the newly synthesized ATP to be measured using a luciferase/luciferin reaction. Luminescence can be correlated to ADP concentrations by using an ATP-to-ADP conversion curve. The detailed procedure is as follows. 50 μL of the compound being tested (600 uM in DMSO) was added to a 384-well dilution plate. The compound was diluted 1:3 in succession in DMSO for each row for 11 wells. 0.5 μL ACC2 working solution was added to 384-well white Optiplate assay plate. 0.5 μL diluted compound solution in each column from step 2 to assay plate, each row containing 2 replicates. […] The plates were incubated at room temperature for 15 minutes. 5 μL substrate working solution was added to each well to initiate reaction. […] Plates were incubated at room temperature for 60 minutes. 10 μL ADP glo reagent was added. Plates were incubated at room temperature for 40 minutes. 20 μL kinase detection reagent was added.
Data for each concentration, as well as the positive and negative controls were averaged, and the standard deviation calculated. Percent inhibition was calculated by the formula: 100× (average negative control−compound)/(average negative control−average positive control). The IC50 for each compound was calculated by fitting the data with a non-linear regression equation: Y=Bottom+(Top-Bottom)/(1+10^((Log IC50−X)*HillSlope)), where X is the log of compound concentration and Y is percent inhibition.
The compound numbers correspond to the compound numbers in Table 1.

ACC2, sequence (O00763 whole entry, species assumed): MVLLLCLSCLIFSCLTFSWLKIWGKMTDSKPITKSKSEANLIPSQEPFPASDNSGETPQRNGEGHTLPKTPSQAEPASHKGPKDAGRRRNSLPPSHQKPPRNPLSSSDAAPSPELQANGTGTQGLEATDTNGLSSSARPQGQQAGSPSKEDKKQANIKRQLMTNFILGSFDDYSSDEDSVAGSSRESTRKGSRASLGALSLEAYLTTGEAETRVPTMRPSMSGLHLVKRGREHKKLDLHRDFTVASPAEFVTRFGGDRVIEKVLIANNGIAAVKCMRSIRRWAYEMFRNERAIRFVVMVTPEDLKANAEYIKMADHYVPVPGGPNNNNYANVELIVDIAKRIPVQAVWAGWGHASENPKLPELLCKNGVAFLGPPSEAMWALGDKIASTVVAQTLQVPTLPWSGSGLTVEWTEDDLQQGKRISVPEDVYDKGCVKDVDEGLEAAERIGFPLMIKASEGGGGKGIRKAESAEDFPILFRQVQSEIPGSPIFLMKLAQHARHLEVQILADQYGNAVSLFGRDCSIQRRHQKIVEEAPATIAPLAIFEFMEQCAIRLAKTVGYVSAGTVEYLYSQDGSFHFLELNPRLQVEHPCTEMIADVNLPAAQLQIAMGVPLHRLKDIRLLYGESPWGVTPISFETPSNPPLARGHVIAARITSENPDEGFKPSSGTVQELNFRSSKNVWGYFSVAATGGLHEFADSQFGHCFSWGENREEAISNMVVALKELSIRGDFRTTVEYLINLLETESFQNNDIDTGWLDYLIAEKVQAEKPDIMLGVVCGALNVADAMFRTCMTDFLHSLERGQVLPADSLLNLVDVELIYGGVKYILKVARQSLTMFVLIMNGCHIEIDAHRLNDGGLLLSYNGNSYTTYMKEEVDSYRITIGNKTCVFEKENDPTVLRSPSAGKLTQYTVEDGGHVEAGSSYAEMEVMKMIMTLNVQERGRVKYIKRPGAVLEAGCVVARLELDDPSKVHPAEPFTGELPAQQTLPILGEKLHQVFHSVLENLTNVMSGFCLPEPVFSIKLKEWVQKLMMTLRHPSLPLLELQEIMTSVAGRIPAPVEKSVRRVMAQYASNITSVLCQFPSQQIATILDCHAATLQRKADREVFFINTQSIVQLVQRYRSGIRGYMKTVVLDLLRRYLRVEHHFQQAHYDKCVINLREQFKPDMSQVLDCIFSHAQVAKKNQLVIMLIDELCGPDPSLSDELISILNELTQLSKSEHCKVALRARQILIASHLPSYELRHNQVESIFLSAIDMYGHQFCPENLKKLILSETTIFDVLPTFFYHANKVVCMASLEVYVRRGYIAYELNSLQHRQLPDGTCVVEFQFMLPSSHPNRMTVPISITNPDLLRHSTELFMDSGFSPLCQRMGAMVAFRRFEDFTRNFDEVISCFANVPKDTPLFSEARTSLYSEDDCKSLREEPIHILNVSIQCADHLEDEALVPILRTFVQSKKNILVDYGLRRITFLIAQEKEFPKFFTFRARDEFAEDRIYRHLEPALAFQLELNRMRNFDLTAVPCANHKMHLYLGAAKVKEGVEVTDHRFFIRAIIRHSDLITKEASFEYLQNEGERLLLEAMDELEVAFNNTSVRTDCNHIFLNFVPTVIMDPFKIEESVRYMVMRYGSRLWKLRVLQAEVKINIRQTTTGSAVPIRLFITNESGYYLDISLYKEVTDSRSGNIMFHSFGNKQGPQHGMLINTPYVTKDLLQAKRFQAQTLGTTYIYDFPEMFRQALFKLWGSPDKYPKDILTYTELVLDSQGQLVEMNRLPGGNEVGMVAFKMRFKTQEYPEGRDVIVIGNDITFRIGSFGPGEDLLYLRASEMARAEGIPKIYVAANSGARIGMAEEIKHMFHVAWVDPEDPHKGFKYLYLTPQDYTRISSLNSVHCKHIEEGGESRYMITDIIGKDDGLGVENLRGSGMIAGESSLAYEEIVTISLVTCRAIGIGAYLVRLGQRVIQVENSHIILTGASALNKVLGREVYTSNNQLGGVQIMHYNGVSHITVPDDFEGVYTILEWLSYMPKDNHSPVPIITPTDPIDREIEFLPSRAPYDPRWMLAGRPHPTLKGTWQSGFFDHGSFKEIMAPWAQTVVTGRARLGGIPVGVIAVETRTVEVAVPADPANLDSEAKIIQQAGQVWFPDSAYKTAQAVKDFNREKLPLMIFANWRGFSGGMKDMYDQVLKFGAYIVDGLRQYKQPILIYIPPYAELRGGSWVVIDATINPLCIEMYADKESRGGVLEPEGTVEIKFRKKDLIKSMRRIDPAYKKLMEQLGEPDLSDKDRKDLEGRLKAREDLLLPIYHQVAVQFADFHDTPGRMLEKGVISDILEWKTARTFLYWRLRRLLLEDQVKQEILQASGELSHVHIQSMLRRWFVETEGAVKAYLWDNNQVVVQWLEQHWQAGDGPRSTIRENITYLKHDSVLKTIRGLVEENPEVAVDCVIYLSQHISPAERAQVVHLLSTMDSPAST

`CCOC(=O)c1sc2c(c1C)c(=O)n(CCO)c(=O)n2CCc1c(F)cccc1F` [I-24]: the IC50 is above 50 µM.
With `COC(=O)c1sc2c(c1C)c(=O)n(CCO)c(=O)n2CCc1c(F)cccc1F` [I-25], the IC50 was above 50 µM.
Take `CCOC(=O)c1sc2c(c1C)c(=O)n(CCO)c(=O)n2CCc1ccc(F)cc1` [I-26, ethyl 1-[2-(4-fluorophenyl)ethyll]-3-(2-hydroxyethyl)-5-methyl-2,4-dioxo-1H,2H,3H,4H-thieno[2,3-d]pyrimidine-6-carboxylate]: the IC50 lay within 5 to 20 µM.
On to `CNC(=O)c1sc2c(c1C)c(=O)n(CCO)c(=O)n2CCc1ccccc1` [I-27], for which the IC50 is above 50 µM.
For `CCOC(=O)c1sc2c(c1C)c(=O)n(CCO)c(=O)n2CCC1CCCCC1` [I-28], the IC50 is above 50 µM.
For the compound `CCOC(=O)c1sc2c(c1C)c(=O)n(CCO)c(=O)n2CCc1cc(F)cc(F)c1` [I-29, ethyl 1-[2-(3,5-difluorophenyl)ethyl]-3-(2-hydroxyethyl)-5-methyl-2,4-dioxo-1H,2H,3H,4H-thieno[2,3-d]pyrimidine-6-carboxylate], the IC50 is above 50 µM.
For the compound `CCOC(=O)c1sc2c(c1C)c(=O)n(CCO)c(=O)n2CCc1ccc2ccccc2c1` [I-30, ethyl 3-(2-hydroxyethyl)-5-methyl-1-[2-(naphthalen-2-yl)ethyl]-2,4-dioxo-1H,2H,3H,4H-thieno[2,3-d]pyrimidine-6-carboxylate], the IC50 was above 50 µM.
For `CCOC(=O)c1sc2c(c1C)c(=O)n(CCCCO)c(=O)n2CCc1ccccc1` [I-34, ethyl 3-(4-hydroxybutyl)-5-methyl-2,4-dioxo-1-(2-phenylethyl)-1H,2H,3H,4H-thieno[2,3-d]pyrimidine-6-carboxylate] the value was 5 to 20 µM; for `CCOC(=O)c1sc2c(c1C)c(=O)n(CCO)c(=O)n2Cc1csc(C)n1` [I-35], above 50 µM; for `CCOC(=O)c1sc2c(c1C)c(=O)n(CCO)c(=O)n2C(C)Cc1ccccc1` (centres unmarked) [I-36, ethyl 3-(2-hydroxyethyl)-5-methyl-2,4-dioxo-1-(1-phenylpropan-2-yl)-1H,2H,3H,4H-thieno[2,3-d]pyrimidine-6-carboxylate], 20 to 50 µM.
`COC(=O)c1sc2c(c1C)c(=O)n(CCO)c(=O)n2CCc1ccccc1` [I-37, methyl 3-(2-hydroxyethyl)-5-methyl-2,4-dioxo-1-(2-phenylethyl)-1H,2H,3H,4H-thieno[2,3-d]pyrimidine-6-carboxylate]: the IC50 fell in the range of 5 to 20 µM.
With `CCOCc1sc2c(c1C)c(=O)n(CCO)c(=O)n2CCc1ccccc1` [I-38, 6-(ethoxymethyl)-3-(2-hydroxyethyl)-5-methyl-1-(2-phenylethyl)-1H,2H,3H,4H-thieno[2,3-d]pyrimidine-2,4-dione], the IC50 was above 50 µM.
Regarding `COCc1sc2c(c1C)c(=O)n(CCO)c(=O)n2CCc1ccccc1` [I-39, 3-(2-hydroxyethyl)-6-(methoxymethyl)-5-methyl-1-(2-phenylethyl)-1H,2H,3H,4H-thieno[2,3-d]pyrimidine-2,4-dione], the IC50 was 20 to 50 µM.
In the case of `CCCOC(=O)c1sc2c(c1C)c(=O)n(CCO)c(=O)n2CCc1ccccc1` [I-41, propyl 3-(2-hydroxyethyl)-5-methyl-2,4-dioxo-1-(2-phenylethyl)-1H,2H,3H,4H-thieno[2,3-d]pyrimidine-6-carboxylate], the IC50 was above 50 µM.
Under `Cc1c(C(=O)OCCO)sc2c1c(=O)n(CCO)c(=O)n2CCc1ccccc1` [I-42, 2-hydroxyethyl 3-(2-hydroxyethyl)-5-methyl-2,4-dioxo-1-(2-phenylethyl)-1H,2H,3H,4H-thieno[2,3-d]pyrimidine-6-carboxylate] stands 20 to 50 µM; under `CCOC(=O)c1sc2c(c1C)c(=O)n(CC#N)c(=O)n2CCc1ccccc1` [I-43], 5 to 20 µM; under `CCOC(=O)c1sc2c(c1C)c(=O)n(CCO)c(=O)n2CCc1nc2ccccc2s1` [I-44], above 50 µM.
For `Cc1c(C(N)=O)sc2c1c(=O)n(CCO)c(=O)n2CCc1ccccc1` [I-47] the value was above 50 µM; for `CCOC(=O)c1sc2c(c1C)c(=O)n(CC(=O)NCCO)c(=O)n2CCc1ccccc1` [I-48, ethyl 3-[[(2-hydroxyethyl)carbamoyl]methyl]-5-methyl-2,4-dioxo-1-(2-phenylethyl)-1H,2H,3H,4H-thieno[2,3-d]pyrimidine-6-carboxylate], 5 to 20 µM; for `CCOC(=O)c1sc2c(c1C)c(=O)n(CCO)c(=O)n2CCc1nccs1` [I-49], above 50 µM.
With `CCOC(=O)c1sc2c(c1C)c(=O)n(CC(=O)O)c(=O)n2Cc1ccc2c(c1)OCO2` [I-50, 2-[1-(2H-1,3-benzodioxol-5-ylmethyl)-6-(ethoxycarbonyl)-5-methyl-2,4-dioxo-1H,2H,3H,4H-thieno[2,3-d]pyrimidin-3-yl]acetic acid], the IC50 was above 50 µM.
In the case of `CCOC(=O)c1sc2c(c1C)c(=O)n(CCO)c(=O)n2Cc1ccc2[nH]ccc2c1` [I-51, ethyl 3-(2-hydroxyethyl)-1-(1H-indol-5-ylmethyl)-5-methyl-2,4-dioxo-1H,2H,3H,4H-thieno[2,3-d]pyrimidine-6-carboxylate], the IC50 was above 50 µM.
For `CCOC(=O)c1sc2c(c1C)c(=O)n(CC(=O)O)c(=O)n2CCc1ccc(I)cc1` [I-53, 2-[6-(ethoxycarbonyl)-1-[2-(4-iodophenyl)ethyl]-5-methyl-2,4-dioxo-1H,2H,3H,4H-thieno[2,3-d]pyrimidin-3-yl]acetic acid], the IC50 is 5 to 20 µM.
As to `CCOC(=O)c1sc2c(c1C)c(=O)n(CC(=O)O)c(=O)n2CCc1ccccc1Br` [I-54, 2-[1-[2-(2-bromophenyl)ethyl]-6-(ethoxycarbonyl)-5-methyl-2,4-dioxo-1H,2H,3H,4H-thieno[2,3-d]pyrimidin-3-yl]acetic acid], the IC50 lay within 5 to 20 µM.
Regarding `CCOC(=O)c1sc2c(c1C)c(=O)n(C(C)C(=O)O)c(=O)n2CCc1ccccc1` (centres unmarked) [I-56, 2-[6-(ethoxycarbonyl)-5-methyl-2,4-dioxo-1-(2-phenylethyl)-1H,2H,3H,4H-thieno[2,3-d]pyrimidin-3-yl]propanoic acid], the IC50 was below 5 µM.
With `Cc1c(C(=O)NCCO)sc2c1c(=O)n(CCO)c(=O)n2CCc1ccccc1` [I-57], the IC50 was above 50 µM.
On to `Cc1csc2c1c(=O)n(CCO)c(=O)n2CCc1ccccc1` [I-58], for which the IC50 was above 50 µM.
`O=c1c2ccsc2n(CCc2ccccc2)c(=O)n1CCO` [I-59]: the IC50 was above 50 µM.
In the case of `CCOC(=O)c1sc2c(c1C)c(=O)n(CC(C)O)c(=O)n2CCc1ccccc1` (centres unmarked) [I-62, ethyl 3-(2-hydroxypropyl)-5-methyl-2,4-dioxo-1-(2-phenylethyl)-1H,2H,3H,4H-thieno[2,3-d]pyrimidine-6-carboxylate], the IC50 lay in the range of 5 to 20 µM.
For `Cc1csc2c1c(=O)n(CC(=O)O)c(=O)n2CCc1ccccc1` [I-63] the value was 20 to 50 µM; for `CCOC(=O)c1sc2c(c1C)c(=O)n(CCO)c(=O)n2Cc1ccc2ccn(C)c2c1` [I-64], above 50 µM; for `O=C(O)Cn1c(=O)c2ccsc2n(CCc2ccccc2)c1=O` [I-65, 2-[2,4-dioxo-1-(2-phenylethyl)-1H,2H,3H,4H-thieno[2,3-d]pyrimidin-3-yl]acetic acid], above 50 µM.
For the compound `[2H]c1ccc(CCn2c(=O)n(CC(=O)O)c(=O)c3c(C)c(C(=O)OCC)sc32)cc1` [I-66, 2-(1-(4-deuterophenethyl)-6-(ethoxycarbonyl)-5-methyl-2,4-doxo-1,2-dihydrothieno[2,3-d]pyrimidin-3(4H)-yl)acetic acid], the IC50 is below 5 µM.
For `CCOC(=O)c1sc2c(c1C)c(=O)n(CC(=O)O)c(=O)n2CC(OC)c1ccccc1` (centres unmarked) [I-67, 2-[6-(ethoxycarbonyl)-1-(2-methoxy-2-phenylethyl)-5-methyl-2,4-dioxo-1H,2H,3H,4H-thieno[2,3-d]pyrimidin-3-yl]acetic acid] the value was below 5 µM; for `CCCOC(=O)c1sc2c(c1C)c(=O)n(CC(=O)O)c(=O)n2CCc1ccccc1` [I-68, 2-[5-methyl-2,4-dioxo-1-(2-phenylethyl)-6-(propoxycarbonyl)-1H,2H,3H,4H-thieno[2,3-d]pyrimidin-3-yl]acetic acid], 5 to 20 µM; for `CCOC(=O)c1sc2c(c1C)c(=O)n(C(C)C(N)=O)c(=O)n2CCc1ccccc1` (centres unmarked) [I-69, ethyl 3-(1-carbamoylethyl)-5-methyl-2,4-dioxo-1-(2-phenylethyl)-1H,2H,3H,4H-thieno[2,3-d]pyrimidine-6-carboxylate], below 5 µM.
For `Cc1c(C(N)=O)sc2c1c(=O)n(CC(=O)O)c(=O)n2CCc1ccccc1` [I-71, 2-[6-carbamoyl-5-methyl-2,4-dioxo-1-(2-phenylethyl)-1H,2H,3H,4H-thieno[2,3-d]pyrimidin-3-yl]acetic acid] the value was above 50 µM.
Regarding `CCOC(=O)c1sc2c(c1C)c(=O)n(CS(C)(=O)=O)c(=O)n2CCc1ccccc1` [I-72], the IC50 is above 50 µM.

Values taken from patent US9453026B2, “ACC inhibitors and uses thereof” (Gilead Apollo, Inc., priority 2011, dated 2016).
